Columns and labels:
Salmonella typhimurium [1] = experiment: Antimutagenic activity in Salmonella Typhimurium TA100 assessed as inhibition of ethyl methanesulfonate-induced mutation at 3.9 uM treated for 30 mins and measured after 2 days by modified Ames test; type: functional, Salmonella enterica subsp. enterica serovar Typhimurium; details: Salmonella enterica
Salmonella typhimurium [2] = experiment: Antimutagenic activity in Salmonella Typhimurium TA100 assessed as inhibition of ethyl methanesulfonate-induced mutation at 7.8 uM treated for 30 mins and measured after 2 days by modified Ames test; type: functional, Salmonella enterica subsp. enterica serovar Typhimurium; details: Salmonella enterica
Salmonella typhimurium [3] = experiment: Antimutagenic activity in Salmonella Typhimurium TA100 assessed as inhibition of ethyl methanesulfonate-induced mutation at 31.3 uM treated for 30 mins and measured after 2 days by modified Ames test; type: functional, Salmonella enterica subsp. enterica serovar Typhimurium; details: Salmonella enterica
[4] = Cytotoxicity against Salmonella Typhimurium TA100 assessed as maximun non-toxic concentrations after 15 hrs […]; type: organism-based; details: salmonella enterica subsp. enterica serovar typhimurium, Salmonella Typhimurium TA100 cells; read-out: Activity
Salmonella typhimurium [5] = experiment: Antimutagenic activity in Salmonella Typhimurium TA100 assessed as inhibition of ethyl methanesulfonate-induced mutation at 3.9 to 125 uM treated for 30 mins and measured after 2 days by modified Ames test; type: functional, Salmonella enterica subsp. enterica serovar Typhimurium
Salmonella typhimurium [6] = experiment: Antimutagenic activity in Salmonella Typhimurium TA100 assessed as inhibition of ethyl methanesulfonate-induced mutation at 25 ug/mL treated for 30 mins and measured after 2 days by modified Ames test; type: functional, Salmonella enterica subsp. enterica serovar Typhimurium; details: Salmonella enterica
Salmonella typhimurium [7] = experiment: Antimutagenic activity in Salmonella Typhimurium TA100 assessed as inhibition of ethyl methanesulfonate-induced mutation at 125 uM treated for 30 mins and measured after 2 days by modified Ames test; type: functional, Salmonella enterica subsp. enterica serovar Typhimurium; details: Salmonella enterica
Salmonella typhimurium [8] = experiment: Antimutagenic activity in Salmonella Typhimurium TA100 assessed as inhibition of ethyl methanesulfonate-induced mutation at 15.6 ug/mL treated for 30 mins and measured after 2 days by modified Ames test; type: functional, Salmonella enterica subsp. enterica serovar Typhimurium; details: Salmonella enterica
Salmonella typhimurium [9] = experiment: Antimutagenic activity in Salmonella Typhimurium TA100 assessed as inhibition of ethyl methanesulfonate-induced mutation at 82.5 uM treated for 30 mins and measured after 2 days by modified Ames test; type: functional, Salmonella enterica subsp. enterica serovar Typhimurium; details: Salmonella enterica

Structure (SMILES): CC(C)=CCc1cc(/C=C/CO)ccc1O
- inhibition at 3.9 µM (Salmonella typhimurium [1]): 20.2%
- inhibition at 7.8 µM (Salmonella typhimurium [2]): 27.1%
- inhibition at 31.3 µM (Salmonella typhimurium [3]): 36.8%

Structure (SMILES): COC(=O)CCc1ccc(O)c(CC=C(C)C)c1
- inhibition at 3.9 µM (Salmonella typhimurium [1]): 25.2%
- inhibition at 7.8 µM (Salmonella typhimurium [2]): 38.5%
- inhibition at 31.3 µM (Salmonella typhimurium [3]): 46.8%
- MNTC at 15 h [4]: 31.3 µM

Structure (SMILES): COC(=O)CCc1ccc(O)cc1 [4-HYDROXYHYDROCINNAMIC ACID METHYL ESTER]
- inhibition (INH) (Salmonella typhimurium [5]): 0%

Structure (SMILES): O=C/C=C/c1ccccc1 [CINNAMALDEHYDE]
- inhibition at 25 µg/mL (Salmonella typhimurium [6]): 30%
- MNTC at 15 h [4]: 25 µg/mL

Structure (SMILES): O=C(O)/C=C/c1ccc(O)cc1 [COUMARIC ACID]
- inhibition at 3.9 µM (Salmonella typhimurium [1]): 11.2%
- inhibition at 7.8 µM (Salmonella typhimurium [2]): 13.6%
- inhibition at 125 µM (Salmonella typhimurium [7]): 49.8%

Structure (SMILES): CC(C)=CCc1cc(/C=C/C(=O)O)ccc1O [DRUPANIN]
- inhibition at 3.9 µM (Salmonella typhimurium [1]): 0.3%
- inhibition at 7.8 µM (Salmonella typhimurium [2]): 0.6%
- inhibition at 15.6 µg/mL (Salmonella typhimurium [8]): 12%

Structure (SMILES): COC(=O)/C=C/c1ccc(O)cc1 [METHYL P-HYDROXYCINNAMATE]
- inhibition at 3.9 µM (Salmonella typhimurium [1]): 0%
- inhibition at 7.8 µM (Salmonella typhimurium [2]): 0.9%
- inhibition at 82.5 µM (Salmonella typhimurium [9]): 7.6%

Structure (SMILES): COC(=O)/C=C/c1ccc(OC)c(CC=C(C)C)c1 [PALICATIN B METHYL ETHER]
- inhibition at 3.9 µM (Salmonella typhimurium [1]): 13.2%
- inhibition at 7.8 µM (Salmonella typhimurium [2]): 21.5%

Structure (SMILES): COC(=O)/C=C/c1ccc(O)c(CC=C(C)C)c1 [PLICATIN B]
- inhibition at 3.9 µM (Salmonella typhimurium [1]): 25.4%
- inhibition at 7.8 µM (Salmonella typhimurium [2]): 30.2%

— ChEMBL document CHEMBL1157993, “Structure-antimutagenic activity relationship study of plicatin B” (J Nat Prod, 1999)
